# Measured values: patent US20230270713A1, “Administration of Resiniferatoxin For Treatment of Bladder Pain or Bladder Cancer” (Sorrento Therapeutics, Inc., priority 2020, published 2023)
# Entries after “also recorded” stand apart in the source; their conditions may differ.
# Tests used:
# [1] = system: S1 and S2 DRG neurons expressing CGRP and SP; experiment: CGRP and SP positive neurons in S1 and S2 dorsal root ganglia of cats (IHC); type: in vivo, cat
# Description: (§1) At day 14 the cats were anesthetized and perfused with saline followed by 10% formalin. After confirmation of successful euthanasia, lumbar and sacral segments of the spinal cord with corresponding dorsal spinal ganglia, the urinary bladder and urethra were harvested and tissues were prepared for immunohistochemistry.
# (§2) Previous studies have shown that TRPV1-immunoreactive axons co-express Calcitonin gene-related peptide (CGRP) and substance P (SP) (See, e.g., Sharrad et al. (2015) Neurosci. Lett., 599: 164-171; Bae et al. (2004) J. Comp. Neurol. 478: 62-71). Since feline bladder connective tissue, smooth muscle, and cell bodies of S2 DRG express CGRP+ and SP+ axons, expression of CGRP and SP were used in these studies to identify the majority of TRPV1 axons innervating the cat bladder and TRPV1+ cell bodies in cat S2 dorsal root ganglia (DRG).
# The percent of cell bodies from S1 and S2 DRG expressing SP and CGRP from feline bladders after intravesical application of either control (saline) or RTX (5, 25 or 50 mcg) was also examined using immunohistochemistry and confocal laser microscopy as described above. […] CGRP positive cell bodies were small to medium-size.
# [2] = system: CGRP and SP afferent nerve fibers (TRPV1 axons) innervating the cat bladder; experiment: Density of CGRP and SP afferent nerve fibers in cat bladder (IHC, confocal); type: in vivo
# Description: To examine the effect of intravesical instillation of RTX on the bladder, 6 healthy cats, between the 2-5 years of age, were treated with either 5 (low dose), 25 (mid dose) or 50 mcg (high dose) of RTX (volume was 25 ml; concentrations were 0.2, 1, and 2 mcg/ml). These doses are considered equivalent to administration of 20, 100, or 200 mcg in a human with a volume of 100 ml. A seventh cat received saline only and served as the control. The bladders of the anesthetized cats were emptied and then flushed with sterile saline via a foley urinary catheter. Once the saline was removed, the treatment with RTX (test cats) or saline alone (control cat) was administered over 60 seconds and left in the bladder for 20 minutes.
# as §1, §2
# [3] = Local tolerance and clinical observations after intravesical RTX in dogs; type: in vivo, dog; conditions: single 25 or 250 mcg intravesical
# Description: Local tolerance and the pharmacokinetic (PK), and toxicokinetic (TK) profile of RTX in dogs was determined after a single instillation of RTX into the bladder of dogs (n=6). The RTX formulations were prepared using aseptic techniques in a biological safety cabinet (BSC) by mixing the appropriate amount of diluent with the appropriate amount of RTX. Dosing formulation concentrations used were 1 and 10 mcg/mL.
# RTX was administered via intravesical instillation into the urinary bladder. The animals were given a single dose of 25 or 250 mcg/dose in a total volume of 25 mL on Day 1 over a period of 1 hour (±5 minutes). RTX and diluent were administered to the dogs under general anesthesia via a Foley catheter placed into the bladder for 1 hour (±5 minutes).
# Observations for morbidity, mortality, injury, and the availability of food and water were conducted twice daily for all animals. Observations for clinical signs for all animals were conducted on Day 2. The observations included evaluation of the skin, fur, eyes, ears, nose, oral cavity, thorax, abdomen, external genitalia, limbs and feet, respiratory and circulatory effects, autonomic effects such as salivation, and nervous system effects including tremors, convulsions, reactivity to handling, and unusual behavior.
# [4] = Safety monitoring in FIC cats; type: in vivo, cat
# Description: As a way of monitoring the safety of the experiment for the enrolled cats, a physical examination was performed on the cats on Days 14 and 28. Measurements for body weight, body temperature, heart rate and respiratory rate were recorded. Body weight was collected for all cohorts, while the remaining variables were collected for Cohort 1, which received the highest total dose of RTX (25 μg/25 mL). […] Results were also collected for complete blood count (CBC), serum chemistry, urinalysis and culture.
smiles,measurement,setting,value
"C=C(C)[C@]12C[C@@H](C)[C@@]34O[C@](Cc5ccccc5)(O[C@@H]1[C@@H]3C=C(COC(=O)Cc1ccc(O)c(OC)c1)C[C@]1(O)C(=O)C(C)=C[C@@H]41)O2 [RTX, resiniferatoxin]",number of neurons (cell bodies) expressing CGRP and SP in S2 DRG,"[1]; cat, single 25 mcg intravesical, vs saline control",does not decrease; also recorded: did not modify
same,percentage of CGRP+ neurons in S1 DRG and S2 DRG,"[1]; cats, 5, 25 and 50 mcg, 14 days post treatment, vs control",did not affect
same,percentage of cell bodies expressing CGRP and SP in S1 and S2 DRG,"[1]; cats, 5, 25 or 50 mcg intravesical, vs control",did not affect
same,percentage of SP+ neurons in S1 DRG and S2 DRG,"[1]; cats, 14 days post-treatment",comparable to the control
same,density of CGRP and SP axons innervating cat bladder body,"[2]; 5, 25 and 50 mcg single administration, 14 days post-treatment, vs saline",reduced
same,density of CGRP or SP fibers in cat bladder,[2]; 5 mcg RTX in 25 ml saline,modest reduction
same,density of CGRP and SP-immunoreactive axons innervating cat bladder body,"[2]; 25 and 50 mcg, day 14, vs control saline",decreased
same,ablation of afferent nerves,[2]; 25 mcg and 50 mcg in 25 ml saline,effective at ablating afferent nerves
same,"density of CGRP and SP fibers in body, trigon and fundus","[2]; 25 or 50 mcg in 25 ml saline, vs control",more significant reduction
same,"Tolerability, detailed clinical observations, body weight",[3],well tolerated and did not result in any detailed clinical observations or changes in body weight
same,"complete blood count (CBC), serum chemistry, urinalysis and culture",[4],No significant changes were observed
same,Adverse events in other cohorts,[4]; Cohorts 2-4,considered unrelated to the treatment or not serious
same,"body weight, body temperature, heart rate and respiratory rate","[4]; Days 14 and 28, body weight all cohorts, other variables Cohort 1 (25 μg/25 mL)",No clinically significant changes were observed
same,Tolerability,"[4]; all doses, at administration and through 28-day follow-up",overall well tolerated
same,serious adverse events considered related to the treatment,[4]; death of a Cohort 1 cat (25 μg/25 mL),One serious adverse event
